Bounds are passed on as bounds.

The target of this experiment is T1, human GPR84 receptor (Homo sapiens, UniProt Q9NQS5).
T1 construct: frozen aliquots prepared by acCELLerate; host or cells: CHO-K1
T1 sequence (Q9NQS5 whole entry): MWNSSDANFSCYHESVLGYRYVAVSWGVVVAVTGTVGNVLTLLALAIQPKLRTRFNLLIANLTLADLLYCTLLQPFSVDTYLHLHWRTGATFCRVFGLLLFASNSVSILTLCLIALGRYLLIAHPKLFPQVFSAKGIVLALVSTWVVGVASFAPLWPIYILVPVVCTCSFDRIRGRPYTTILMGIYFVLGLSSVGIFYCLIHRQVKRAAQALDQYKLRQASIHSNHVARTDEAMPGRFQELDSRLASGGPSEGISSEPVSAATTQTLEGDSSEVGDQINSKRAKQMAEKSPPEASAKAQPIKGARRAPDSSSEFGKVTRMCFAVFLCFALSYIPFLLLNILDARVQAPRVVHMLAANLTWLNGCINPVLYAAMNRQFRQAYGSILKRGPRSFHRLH
In words: cAMP HTRF assay for identification of cellular GPR84 antagonists. The class given is cell-based. The settings on record: CHO-K1 cells stably expressing human GPR84; Forskolin + agonist 6-OAU (EC80); average or median values. In a few lines: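 Forskolin-stimulated CHO-K1 cells stably expressing human GPR84, agonist-suppressed cAMP measured by HTRF (665/620 ratio) after lysis. Compounds at 11 concentrations, 20 μM to 0.07 nM, duplicate; normalized to DMSO and no-agonist controls; IC50 by 4-parameter fit.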
For the molecule `Cc1c(C(=O)NCc2ncco2)oc2c1-c1nn(C[C@H]3COCCO3)cc1C1(CC1)C2` [Example 128, 2′-[(2S)-1,4-dioxan-2-ylmethyl]-8′-methyl-N-(1,3-oxazol-2-ylmethyl)-2′,5′-dihydrospiro[cyclopropane-1,4′-furo[2,3-g]indazole]-7′-carboxamide], the IC50 came to 0.11 µM.
Regarding `Cc1c(C(=O)NC[C@@H]2CCCO2)oc2c1-c1nn(CC3CC3)cc1C1(CC1)C2` [Example 129, 2′-(cyclopropylmethyl)-8′-methyl-N-[(2S)-tetrahydrofuran-2-ylmethyl]-2′,5′-dihydrospiro[cyclopropane-1,4′-furo[2,3-g]indazole]-7′-carboxamide], the IC50 amounted to 0.055 µM.
In the case of `Cc1c(C(=O)NC[C@H]2COCCO2)oc2c1-c1nn(CC3CC3)cc1C1(CC1)C2` [Example 130, 2′-(cyclopropylmethyl)-N-[(2S)-1,4-dioxan-2-ylmethyl]-8′-methyl-2′,5′-dihydrospiro[cyclopropane-1,4′-furo[2,3-g]indazole]-7′-carboxamide], the IC50 is 1.29 µM.
`Cc1c(C(=O)NC[C@@H]2COCCO2)oc2c1-c1nn(CC3CC3)cc1C1(CC1)C2` [Example 131, 2′-(cyclopropylmethyl)-N-[(2R)-1,4-dioxan-2-ylmethyl]-8′-methyl-2′,5′-dihydrospiro[cyclopropane-1,4′-furo[2,3-g]indazole]-7′-carboxamide]: the IC50 came out at 0.035 µM.
With `Cc1c(C(=O)NC[C@H]2COCCO2)oc2c1-c1nn(Cc3ccccn3)cc1C1(CCC1)C2` [Example 133], the IC50 came out at 0.94 µM.
As to `Cc1c(C(=O)NC[C@@H]2COCCO2)oc2c1-c1nn(Cc3ccccn3)cc1C1(CCC1)C2` [Example 134], the IC50 turned out to be 0.043 µM.
Turning to `[2H]C([2H])(c1ccccc1)n1cc2c(n1)-c1c(oc(C(=O)NC[C@@H]3CCCO3)c1C)CC2` [Example 135, 8-methyl-2-[phenyl(^2H2)methyl]-N-[(2S)-tetrahydrofuran-2-ylmethyl]-4,5-dihydro-2H-furo[2,3-g]indazole-7-carboxamide], the IC50 amounted to 0.026 µM.
With `[2H]C([2H])(c1ccccc1)n1cc2c(n1)-c1c(oc(C(=O)NC[C@@H]3COCCO3)c1C)CC2` [Example 136, N-[(2R)-1,4-dioxan-2-ylmethyl]-8-methyl-2-[phenyl(^2H2)methyl]-4,5-dihydro-2H-furo[2,3-g]indazole-7-carboxamide], the IC50 was determined as 0.025 µM.
The same measure for `Cc1c(C(=O)NC[C@@H]2CCCO2)oc2c1-c1nn(Cc3noc(C4CC4)n3)cc1CC2` [Example 137, 2-[(5-cyclopropyl-1,2,4-oxadiazol-3-yl)methyl]-8-methyl-N-[(2S)-tetrahydrofuran-2-ylmethyl]-4,5-dihydro-2H-furo[2,3-g]indazole-7-carboxamide]: 0.045 µM.
For `Cc1c(C(=O)NC[C@@H]2COCCO2)oc2c1-c1nn(Cc3noc(C4CC4)n3)cc1CC2` [Example 138], the IC50 amounted to 0.043 µM.
`Cc1c(C(=O)NC[C@@H]2CCCO2)oc2c1-c1nn(CCNC(=O)OC(C)(C)C)cc1CC2` [Example 139, tert-butyl [2-(8-methyl-7-{[(2S)-tetrahydrofuran-2-ylmethyl]carbamoyl}-4,5-dihydro-2H-furo[2,3-g]indazol-2-yl)ethyl]carbamate]: the 50% inhibitory concentration (IC50) is 0.08 µM.
For the molecule `Cc1c(C(=O)NC[C@@H]2COCCO2)oc2c1-c1nn(CCNC(=O)OC(C)(C)C)cc1CC2` [Example 140, tert-butyl [2-(7-{[(2R)-1,4-dioxan-2-ylmethyl]carbamoyl}-8-methyl-4,5-dihydro-2H-furo[2,3-g]indazol-2-yl)ethyl]carbamate], the IC50 turned out to be 0.083 µM.
Take `Cc1c(C(=O)NC[C@@H]2CCCO2)oc2c1-c1nn(CCN3CCN(C(=O)OC(C)(C)C)CC3)cc1CC2` [Example 141, tert-butyl 4-[2-(8-methyl-7-{[(2S)-tetrahydrofuran-2-ylmethyl]carbamoyl}-4,5-dihydro-2H-furo[2,3-g]indazol-2-yl)ethyl]piperazine-1-carboxylate]: the IC50 worked out at 0.7 µM.
Regarding `Cc1c(C(=O)NC[C@@H]2COCCO2)oc2c1-c1nn(CCN3CCN(C(=O)OC(C)(C)C)CC3)cc1CC2` [Example 142, tert-butyl 4-[2-(7-{[(2R)-1,4-dioxan-2-ylmethyl]carbamoyl}-8-methyl-4,5-dihydro-2H-furo[2,3-g]indazol-2-yl)ethyl]piperazine-1-carboxylate], the IC50 was 0.67 µM.
In the case of `Cc1c(C(=O)NC[C@@H]2CCCO2)oc2c1-c1nn(C[C@H]3COCCO3)cc1C1(CCC1)C2` [Example 143, 2′-[(2S)-1,4-dioxan-2-ylmethyl]-8′-methyl-N-[(2S)-tetrahydrofuran-2-ylmethyl]-2′,5′-dihydrospiro[cyclobutane-1,4′-furo[2,3-g]indazole]-7′-carboxamide], the IC50 came out at 0.077 µM.
In the case of `Cc1c(C(=O)NC[C@H]2COCCO2)oc2c1-c1nn(C[C@H]3COCCO3)cc1C1(CCC1)C2` [Example 144, N,2′-bis[(2S)-1,4-dioxan-2-ylmethyl]-8′-methyl-2′,5′-dihydrospiro[cyclobutane-1,4′-furo[2,3-g]indazole]-7′-carboxamide], the IC50 was 7.39 µM.
As to `Cc1c(C(=O)NC[C@@H]2COCCO2)oc2c1-c1nn(C[C@H]3COCCO3)cc1C1(CCC1)C2` [Example 145], the IC50 was 0.11 µM.
The result for `Cc1c(C(=O)NC[C@@H]2CCCO2)oc2c1-c1nn(Cc3ccc(C(=O)NC[C@@H]4CCCO4)nc3)cc1CC2` [Example 146, 8-methyl-N-[(2S)-tetrahydrofuran-2-ylmethyl]-2-[(6-{[(2S)-tetrahydrofuran-2-ylmethyl]carbamoyl}pyridin-3-yl)methyl]-4,5-dihydro-2H-furo[2,3-g]indazole-7-carboxamide] reads 0.047 µM; that for `Cc1c(C(=O)NC[C@@H]2COCCO2)oc2c1-c1nn(Cc3ccc(C(=O)NC[C@@H]4COCCO4)nc3)cc1CC2` [Example 147, N-[(2R)-1,4-dioxan-2-ylmethyl]-2-[(6-{[(2R)-1,4-dioxan-2-ylmethyl]carbamoyl}pyridin-3-yl)methyl]-8-methyl-4,5-dihydro-2H-furo[2,3-g]indazole-7-carboxamide], 0.13 µM; that for `Cc1c(C(=O)NC[C@@H]2CCCO2)oc2c1-c1nn(Cc3ccccn3)cc1C(C)(C)C2` [Example 148, 4,4,8-trimethyl-2-(pyridin-2-ylmethyl)-N-[(2S)-tetrahydrofuran-2-ylmethyl]-4,5-dihydro-2H-furo[2,3-g]indazole-7-carboxamide], 0.035 µM.
For the molecule `Cc1c(C(=O)NC[C@@H]2CCCO2)oc2c1-c1nn(Cc3ccccn3)cc1C1(CC1)C2` [Example 149], the half-inhibitory concentration (IC50) was 0.01 µM.
As to `Cc1c(C(=O)NC[C@@H]2COCCO2)oc2c1-c1nn(Cc3ccccn3)cc1C1(CC1)C2` [Example 150], the IC50 stood at 0.011 µM.
As for `Cc1c(C(=O)NC[C@@H]2CCCO2)oc2c1-c1nn(C(=O)N(C)C)cc1C1(CC1)C2` [Example 153], the 50% inhibitory concentration (IC50) came out at 0.24 µM.
The result for `Cc1c(C(=O)NC[C@@H]2COCCO2)oc2c1-c1nn(C(=O)N(C)C)cc1C1(CC1)C2` [Example 154] reads 0.27 µM; that for `Cc1c(C(=O)NC[C@@H]2CCCO2)oc2c1-c1nn(CC3(F)CN(C(=O)OCc4ccccc4)C3)cc1CC2` [Example 155, benzyl 3-fluoro-3-[(8-methyl-7-{[(2S)-tetrahydrofuran-2-ylmethyl]carbamoyl}-4,5-dihydro-2H-furo[2,3-g]indazol-2-yl)methyl]azetidine-1-carboxylate], 0.013 µM; that for `Cc1c(C(=O)NC[C@@H]2CCCO2)oc2c1-c1nn(CC3CN(C(=O)OCc4ccccc4)C3)cc1CC2` [Example 156, benzyl 3-[(8-methyl-7-{[(2S)-tetrahydrofuran-2-ylmethyl]carbamoyl}-4,5-dihydro-2H-furo[2,3-g]indazol-2-yl)methyl]azetidine-1-carboxylate], 0.009 µM.
As to `Cc1c(C(=O)NC[C@@H]2CCCO2)oc2c1-c1nn(CC3(F)CNC3)cc1CC2` [Example 157, 2-[(3-fluoroazetidin-3-yl)methyl]-8-methyl-N-[(2S)-tetrahydrofuran-2-ylmethyl]-4,5-dihydro-2H-furo[2,3-g]indazole-7-carboxamide], the concentration for half-maximal inhibition (IC50) turned out to be 0.18 µM.
With `Cc1c(C(=O)NC[C@@H]2CCCO2)oc2c1-c1nn(CC3CNC3)cc1CC2` [Example 158, 2-(azetidin-3-ylmethyl)-8-methyl-N-[(2S)-tetrahydrofuran-2-ylmethyl]-4,5-dihydro-2H-furo[2,3-g]indazole-7-carboxamide], the IC50 amounted to 1.55 µM.
With `Cc1c(C(=O)NC[C@@H]2COCCO2)oc2c1-c1nn(CC3CNC3)cc1CC2` [Example 159, 2-(azetidin-3-ylmethyl)-N-[(2R)-1,4-dioxan-2-ylmethyl]-8-methyl-4,5-dihydro-2H-furo[2,3-g]indazole-7-carboxamide], the IC50 worked out at 1.96 µM.
As for `Cc1c(C(=O)NC[C@@H]2CCCO2)oc2c1-c1nn(CCN)cc1CC2` [Example 160, 2-(2-aminoethyl)-8-methyl-N-[(2S)-tetrahydrofuran-2-ylmethyl]-4,5-dihydro-2H-furo[2,3-g]indazole-7-carboxamide], the IC50 was 2.54 µM.
As to `Cc1c(C(=O)NC[C@@H]2COCCO2)oc2c1-c1nn(CCN)cc1CC2` [Example 161, 2-(2-aminoethyl)-N-[(2R)-1,4-dioxan-2-ylmethyl]-8-methyl-4,5-dihydro-2H-furo[2,3-g]indazole-7-carboxamide], the IC50 was determined as 6.52 µM.
With `Cc1c(C(=O)NC[C@@H]2CCCO2)oc2c1-c1nn(CCN3CCNCC3)cc1CC2` [Example 162, 8-methyl-2-[2-(piperazin-1-yl)ethyl]-N-[(2S)-tetrahydrofuran-2-ylmethyl]-4,5-dihydro-2H-furo[2,3-g]indazole-7-carboxamide], the IC50 was determined as 6.74 µM.
On to `Cc1c(C(=O)NC[C@@H]2COCCO2)oc2c1-c1nn(CCN3CCNCC3)cc1CC2` [Example 163, N-[(2R)-1,4-dioxan-2-ylmethyl]-8-methyl-2-[2-(piperazin-1-yl)ethyl]-4,5-dihydro-2H-furo[2,3-g]indazole-7-carboxamide], for which the IC50 was > 20 µM.

(Values after US12570666B2, “Furoindazole derivatives” (Bayer Aktiengesellschaft, priority 2019, dated 2026).)
